Measured values published in patent publication US11884647B2, “Compounds and methods for targeting pathogenic blood vessels” (THE REGENTS OF THE UNIVERSITY OF CALIFORNIA, priority 2019, dated 2024).

Test system: tumor endothelial cells (LL/2 lung cancer tumor)
Test: Lung LL2 ex vivo model of tumor angiogenesis
Assay type: cell-based, mouse
Settings: Lung LL2 ex vivo; Conc. 20 μm; 48 hrs
Outline: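 Read-out is live/dead fluorescence imaging (fluorescein diacetate green, propidium iodide red, 10 min at 37° C) at 2×, taken e.g. 48 h after drug addition. Fragments of mouse LL2 tumor are cultured in Matrigel with endothelial growth medium, usually 4 days, until new endothelial cells grow out, then treated.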

Molecule	48 hrs (morphology observations after 48 hours)
4-([1,4′:1′,4″-terpiperidin]-1″-yl)-6- (methyl(λ^1-oxidanyl)-λ^3-sulfanyl)-3-((4- (tetradecyloxy)phenyl)sulfonyl)quinoline [compound 347]	*** (100% of endothelial cells vesicularize in cell shape)

Same assay, conditions: Lung LL2 ex vivo; Conc. 20 μm; drug treatment two days

Molecule	Cell death [%]
4-([1,4′:1′,4″-terpiperidin]-1″-yl)-6- (methyl(λ^1-oxidanyl)-λ^3-sulfanyl)-3-((4- (tetradecyloxy)phenyl)sulfonyl)quinoline [compound 347]	30

Same assay, conditions: Lung LL2 ex vivo; Conc. 40 μm; drug treatment two days

Molecule	Cell death [%]
CCCCOc1ccc(S(=O)(=O)c2cnc3ccc(SC)cc3c2N2CCC3C(COCCN3CC(C)C)C2)cc1 (stereo not drawn) [compound 352, 7-(3-((4-butoxyphenyl)sulfonyl)-6-(methylthio)quinolin-4-yl)-1-isobutyldecahydropyrido[4,3-e][1,4]oxazepine]	100
CCCCOc1ccc(S(=O)(=O)c2cnc3ccc(C(=O)NC4C(O)O[C@H](CO)[C@@H](O)[C@@H]4O)cc3c2N2CCCN(C)CC2)cc1 (stereo partly drawn) [compound 193, 3-((4-butoxyphenyl)sulfonyl)-4-(4-methyl-1,4-diazepan-1-yl)-N-((4R,5S,6R)-2,4,5-trihydroxy-6-(hydroxymethyl)tetrahydro-2H-pyran-3-yl)quinoline-6-carboxamide]	30
CCCCOc1ccc(S(=O)(=O)c2cnc3ccc(SC)cc3c2N2CCCN(c3nc4ccc(Cl)cc4s3)CC2)cc1 [compound 356, 2-(4-(3-((4-butoxyphenyl)sulfonyl)-6-(methylthio)quinolin-4-yl)-1,4-diazepan-1-yl)-6-chlorobenzo[d]thiazole]	0

Same assay, conditions: Mus musculus, Endothelial cell, 48 h, read-out: Cell death

Molecule	cytotoxicity at 40 µM [%]	cytotoxicity at 20 µM [%]	cytotoxicity at 10 µM [%]
COc1ccc(S(=O)(=O)c2cnc3cc(OC)c(OC)cc3c2N2CCC(N3CCCCC3)CC2)cc1 [compound 320, 4-([1,4′-bipiperidin]-1′-yl)-6,7-dimethoxy-3-((4-methoxyphenyl)sulfonyl)quinoline]	30		
CNC(=O)c1ccc(C2CCN(c3c(S(=O)(=O)c4ccc(OC)cc4)cnc4cc(OC)c(OC)cc34)CC2)cc1 [compound 310, 4-(1-(6,7-dimethoxy-3-((4-methoxyphenyl)sulfonyl)quinolin-4-yl)piperidin-4-yl)-N-methylbenzamide]	10		
CCCCCCCCCCCCCCOc1ccc(S(=O)(=O)c2cnc3ccc([S+](C)[O-])cc3c2N2CCC(N3CCN(CCO)CC3)CC2)cc1 (stereo not drawn) [compound 344, 2-(4-(1-(6-(methylsulfinyl)-3-((4-(tetradecyloxy)phenyl)sulfonyl)quinolin-4-yl)piperidin-4-yl)piperazin-1-yl)ethan-1-ol]		10	
CCCCOc1ccc(S(=O)(=O)c2cnc3ccc(SC)cc3c2N2CCC(N3CCN(c4ccc(F)cc4)CC3)CC2)cc1 [compound 233, 3-((4-butoxyphenyl)sulfonyl)-4-(4-(4-(4-fluorophenyl)piperazin-1-yl)piperidin-1-yl)-6-(methylthio)quinoline]	5		
CCCCCCCCCCCCCCCCOc1ccc(S(=O)(=O)c2cnc3ccc([S+](C)[O-])cc3c2N2CCC(N3CCC(N4CCCC(O)C4)CC3)CC2)cc1 (stereo not drawn) [compound 378, 1″-(3-((4-(hexadecyloxy)phenyl)sulfonyl)-6-(methylsulfinyl)quinolin-4-yl)-[1,4′:1′,4″- terpiperidin]-3-ol]		30	
CCc1ccc(S(=O)(=O)c2cnc3ccc(OC(F)(F)F)cc3c2-n2cccn2)cc1 [compound 109, 3-((4-ethylphenyl)sulfonyl)-4-(1H-pyrazol-1-yl)-6-(trifluoromethoxy)quinoline]		0	
CCCCCCCCCCCCOc1ccc(S(=O)(=O)c2cnc3ccc([S+](C)[O-])cc3c2N2CCC(N3CCN(CCO)CC3)CC2)cc1F (stereo not drawn) [compound 362, 2-(4-(1-(3-((4-(dodecyloxy)-3-fluorophenyl)sulfonyl)-6-(methylsulfinyl)quinolin-4-yl)piperidin-4-yl)piperazin-1-yl)ethanol]		20	
CC(C)CCCC(C)CCOc1ccc(S(=O)(=O)c2cnc3ccc([S+](C)[O-])cc3c2N2CCC(N3CCC(N4CCCCC4)CC3)CC2)cc1 (stereo not drawn) [compound 289, 4-([1,4′:1′,4″-terpiperidin]-1″-yl)-3-((4-((3,7-dimethyloctyl)oxy)phenyl)sulfonyl)-6-(methylsulfinyl)quinoline]		20	
CCCCCCCCCCCCCCOc1ccc(S(=O)(=O)c2cnc3ccc([S+](C)[O-])cc3c2N2CCC(N3CCC(N4CCCCC4)CC3)CC2)cc1F (stereo not drawn) [compound 366, 4-([1,4′:1′,4″-terpiperidin]-1″-yl)-3-((3-fluoro-4-(tetradecyloxy)phenyl)sulfonyl)-6-(methylsulfinyl)quinoline]		10	
CCCCCCCCCCCCOc1ccc(S(=O)(=O)c2cnc3ccc([S+](C)[O-])cc3c2N2CCC(N3CCC(N4CCCC(O)C4)CC3)CC2)cc1F (stereo not drawn) [compound 364, 1″-(3-((4-(dodecyloxy)-3-fluorophenyl)sulfonyl)-6-(methylsulfinyl)quinolin-4-yl)-[1,4′:1′,4″- terpiperidin]-3-ol]		30	
CCc1ccc(S(=O)(=O)c2cnc3ccc(OC(F)(F)F)cc3c2NCc2ccncc2)cc1 [compound 106, 3-((4-ethylphenyl)sulfonyl)-N-(pyridin-4-ylmethyl)-6-(trifluoromethoxy)quinolin-4-amine]		5	
COc1ccc(S(=O)(=O)c2cnc3cc(OC)c(OC)cc3c2N2CCC(=O)N(C)CC2)cc1 [compound 328, 1-(6,7-dimethoxy-3-((4-methoxyphenyl)sulfonyl)quinolin-4-yl)-4-methyl-1,4-diazepan-5-one]	30		
COc1ccc(S(=O)(=O)c2cnc3ccc(S(C)(=O)=O)cc3c2NN2CCN(C)CC2)cc1 [compound 228, 3-((4-methoxyphenyl)sulfonyl)-N-(4-methylpiperazin-1-yl)-6-(methylsulfonyl)quinolin-4-amine]	5		
CCCCOc1ccc(S(=O)(=O)c2cnc3ccc(C(=O)OCC)cc3c2N2CCC(N3CCCC(O)C3)CC2)cc1 (stereo not drawn) [compound 177, ethyl 3-((4-butoxyphenyl)sulfonyl)-4-(3-hydroxy-[1,4′-bipiperidin]-1′-yl)quinoline-6-carboxylate]	100		
COc1ccc(S(=O)(=O)c2cnc3cc(OC)c(OC)cc3c2N2CCC(c3ccc(CN4CCCC4)cc3)CC2)cc1 [compound 312, 6,7-dimethoxy-3-((4-methoxyphenyl)sulfonyl)-4-(4-(4-(pyrrolidin-1-ylmethyl)phenyl)piperidin-1-yl)quinoline]	100		
CCCCCCCOc1ccc(S(=O)(=O)c2cnc3ccc(SC)cc3c2N2CCC(N3CCC(O)(c4ccccc4)CC3)CC2)cc1 [compound 262, 1′-(3-((4-(heptyloxy)phenyl)sulfonyl)-6-(methylthio)quinolin-4-yl)-4-phenyl-[1,4′-bipiperidin]-4-ol]			20
CCCCCCCOc1ccc(S(=O)(=O)c2cnc3ccc(SC)cc3c2N2CCC(N3CCN(C)CC3)CC2)cc1 [compound 246, 3-((4-(heptyloxy)phenyl)sulfonyl)-4-(4-(4-methylpiperazin-1-yl)piperidin-1-yl)-6-(methylthio)quinoline]		95	
CCOC(=O)c1ccc2ncc(S(=O)(=O)c3ccc(OC)cc3)c(N3CCC(N4CCCCCC4)CC3)c2c1 [compound 173, ethyl 4-(4-(azepan-1-yl)piperidin-1-yl)-3-((4-methoxyphenyl)sulfonyl)quinoline-6-carboxylate]	50		
CCOC(=O)c1ccc2ncc(S(=O)(=O)c3ccc(OC)cc3)c(N3CCCN(CCN4CCCC4)CC3)c2c1 [compound 180, ethyl 3-((4-methoxyphenyl)sulfonyl)-4-(4-(2-(pyrrolidin-1-yl)ethyl)-1,4-diazepan-1-yl)quinoline-6-carboxylate]			70
